Counter-ions that a name gives are not always drawn.
molecular target: T1, Notch1 (Homo sapiens, UniProt P46531); assay: Notch1 Reporter Assay (CSL-responsive luciferase, doxycycline-induced Notch-ICD in 293A cells); type: cell-based; details: 25 ng/mL Dox, 24 h, luciferase normalized to cell viability
T1 construct: pLV[Tet]-Puro-TRE3G>Notch1-ICD; expressed in transfected cells; host or cells: 293A cells
Procedure: 293A cells expressing 1) pCMV-Tet-On 3G, 2) pLV[Tet]-Puro-TRE3G>Notch1-ICD, 3) pLV[Tet]-Puro-TRE3G>Notch2-ICD, 4) pLV[Tet]-Puro-TRE3G>Notch3-ICD, and 5) pCSL-RElement-Luc were used. When Doxycycline is added, the Tet-ON gene activates expression of hNotch1ICD, which together with endogenous NTC components binds to CSL responsive elements (pCSL-RElement-Luc) and expresses luciferase. 1×10^4 cells are plated in 100 μL (96-well format). 24 h later, compounds (10 mM stock in DMSO) are diluted in DMSO to 200×, then added (5 ul into 1 mL) to cell culture media containing 50 ng/mL Dox. This is then added 1:1 to cells. Final DMSO=0.25%, Dox=25 ng/mL. After 24 h, media is discarded, and cells are lysed in passive lysis buffer (Promega). Cells are rocked at room temperature for 15 min and then lysate is divided for luciferase assay (Luciferase Assay System, Promega) and cell viability (CellTiter Glo 2.0, Promega). Raw luciferase is normalized to cell viability, and then scaled to DMSO wells. Results are analyzed and IC50's are determined in GraphPad by nonlinear regression curve fitting (4 parameter) of dose response curves.

T1 sequence (P46531 1754-2555 limits assumed): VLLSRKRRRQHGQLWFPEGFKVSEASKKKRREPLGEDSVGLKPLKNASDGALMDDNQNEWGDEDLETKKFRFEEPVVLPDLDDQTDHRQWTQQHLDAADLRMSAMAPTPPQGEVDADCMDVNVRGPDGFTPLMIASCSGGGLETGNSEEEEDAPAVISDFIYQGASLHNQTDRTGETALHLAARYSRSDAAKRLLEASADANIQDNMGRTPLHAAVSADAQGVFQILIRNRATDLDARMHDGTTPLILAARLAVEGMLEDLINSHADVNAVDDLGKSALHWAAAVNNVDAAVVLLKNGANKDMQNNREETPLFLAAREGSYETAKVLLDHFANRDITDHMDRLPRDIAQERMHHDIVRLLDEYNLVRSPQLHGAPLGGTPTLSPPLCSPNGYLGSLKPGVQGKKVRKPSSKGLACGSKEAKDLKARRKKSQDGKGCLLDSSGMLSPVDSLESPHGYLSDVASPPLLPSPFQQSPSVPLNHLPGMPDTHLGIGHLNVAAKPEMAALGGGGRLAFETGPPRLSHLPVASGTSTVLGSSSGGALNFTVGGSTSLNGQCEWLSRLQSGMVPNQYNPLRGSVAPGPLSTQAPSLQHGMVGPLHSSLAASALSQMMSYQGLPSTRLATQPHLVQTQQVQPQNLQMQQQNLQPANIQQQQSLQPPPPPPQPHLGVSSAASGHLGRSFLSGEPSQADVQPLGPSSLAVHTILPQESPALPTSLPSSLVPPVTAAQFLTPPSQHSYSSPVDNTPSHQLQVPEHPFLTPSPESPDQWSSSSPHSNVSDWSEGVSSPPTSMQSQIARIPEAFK

Point of comparison: COc1cc(-c2cc(C(F)(F)F)cc3c2n(C)c(=O)n3CC(=O)Nc2cccc(S(C)(=O)=O)c2)cc(F)c1OCc1nnc[nH]1 [SSTN-501, 2-(4-(4-((4H-1,2,4-triazol-3-yl)methoxy)-3-fluoro-5-methoxyphenyl)-3-methyl-2-oxo-6-(trifluoromethyl)-2,3-dihydro-1H-benzo[d]imidazol-1-yl)-N-(3-(methylsulfonyl)phenyl)acetamide hydrochloride], IC50 13 µM. Against it:
- COc1cc(-c2cc(C(F)(F)F)cc3c2n(C)c(=O)n3CC(=O)N2CCN(C)CC2)cc(F)c1OCc1nnc[nH]1 [SSTN-544, 4-(4-((4H-1,2,4-triazol-3-yl)methoxy)-3-fluoro-5-methoxyphenyl)-3-methyl-1-(2-(4-methylpiperazin-1-yl)-2-oxoethyl)-6-(trifluoromethyl)-1,3-dihydro-2H-benzo[d]imidazol-2-one] — 3.9-fold higher, 51.1 µM
- Cn1c(=O)n(CC(=O)N(Cc2nnc[nH]2)c2ccc(F)cc2)c2cc(C(F)(F)F)cc(-c3cc(Cl)c(OCc4nnc[nH]4)c(Cl)c3)c21 [SSTN-594, 2-(4-(4-((4H-1,2,4-triazol-3-yl)methoxy)-3,5-dichlorophenyl)-3-methyl-2-oxo-6-(trifluoromethyl)-2,3-dihydro-1H-benzo[d]imidazol-1-yl)-N-((4H-1,2,4-triazol-3-yl)methyl)-N-(4-fluorophenyl)acetamide] — 2.9-fold lower, 4.5 µM
- COc1cc(-c2cc(C(F)(F)F)cc3c2n(C)c(=O)n3CC(=O)Nc2cccc(C#N)c2)cc(F)c1OCc1nnc[nH]1 [SSTN-545, 2-(4-(4-((4H-1,2,4-triazol-3-yl)methoxy)-3-fluoro-5-methoxyphenyl)-3-methyl-2-oxo-6-(trifluoromethyl)-2,3-dihydro-1H-benzo[d]imidazol-1-yl)-N-(3-cyanophenyl)acetamide] — 2.2-fold lower, 5.8 µM
- COc1cc(-c2cc(C)cc3c2n(C)c(=O)n3CC(=O)Nc2ccc(F)cc2)cc(F)c1OCc1nnc[nH]1 [SSTN-606, 2-(4-(4-((4H-1,2,4-triazol-3-yl)methoxy)-3-fluoro-5-methoxyphenyl)-3,6-dimethyl-2-oxo-2,3-dihydro-1H-benzo[d]imidazol-1-yl)-N-(4-fluorophenyl)acetamide hydrochloride salt] — within 1.5-fold, 15.3 µM
- COc1cncc(NC(=O)Cn2c(=O)n(C)c3c(-c4cc(F)c(OCc5nnc[nH]5)c(OC)c4)cc(C(F)(F)F)cc32)c1 [SSTN-611, 2-(4-(4-((4H-1,2,4-triazol-3-yl)methoxy)-3-fluoro-5-methoxyphenyl)-3-methyl-2-oxo-6-(trifluoromethyl)-2,3-dihydro-1H-benzo[d]imidazol-1-yl)-N-(5-methoxypyridin-3-yl)acetamide] — 1.6-fold higher, 20.9 µM
- Cn1c(=O)n(CC(=O)Nc2ccc(F)cc2)c2cc(C(F)(F)F)cc(-c3cc(Cl)c(OCc4nnc[nH]4)c(Cl)c3)c21 [SSTN-599, 2-(4-(4-((4H-1,2,4-triazol-3-yl)methoxy)-3,5-dichlorophenyl)-3-methyl-2-oxo-6-(trifluoromethyl)-2,3-dihydro-1H-benzo[d]imidazol-1-yl)-N-(4-fluorophenyl)acetamide] — within 1.5-fold, 13.9 µM
- COc1cc(-c2cc(F)cc3c2n(C)c(=O)n3CC(=O)N(C)c2ccc(F)cc2)cc(F)c1OCc1nnc[nH]1 [compound 425, 2-(4-(4-((4H-1,2,4-triazol-3-yl)methoxy)-3-fluoro-5-methoxyphenyl)-6-fluoro-3-methyl-2-oxo-2,3-dihydro-1H-benzo[d]imidazol-1-yl)-N-(4-fluorophenyl)-N-methylacetamide hydrochloride] — 2.6-fold higher, 33.5 µM
- COc1cc(-c2cc(C(F)(F)F)cc3c2n(C)c(=O)n3CC(=O)Nc2cccc(CN3CCOCC3)c2)cc(F)c1OCc1nnc[nH]1 [SSTN-575, 2-(4-(4-((4H-1,2,4-triazol-3-yl)methoxy)-3-fluoro-5-methoxyphenyl)-3-methyl-2-oxo-6-(trifluoromethyl)-2,3-dihydro-1H-benzo[d]imidazol-1-yl)-N-(3-(morpholinomethyl)phenyl)acetamide] — within 1.5-fold, 12.5 µM
- COc1ccc(NC(=O)Cn2c(=O)n(C)c3c(-c4cc(F)c(OCc5nnc[nH]5)c(OC)c4)cc(C(F)(F)F)cc32)cn1 [SSTN-613, 2-(4-(4-((4H-1,2,4-triazol-3-yl)methoxy)-3-fluoro-5-methoxyphenyl)-3-methyl-2-oxo-6-(trifluoromethyl)-2,3-dihydro-1H-benzo[d]imidazol-1-yl)-N-(6-methoxypyridin-3-yl)acetamide] — within 1.5-fold, 9.2 µM
- Cn1c(=O)n(CC(=O)N(Cc2nnc[nH]2)c2ccc(F)cc2)c2cc(C(F)(F)F)cc(-c3ccc(OCc4nnc[nH]4)c(F)c3)c21 [SSTN-592, 2-(4-(4-((4H-1,2,4-triazol-3-yl)methoxy)-3-fluorophenyl)-3-methyl-2-oxo-6-(trifluoromethyl)-2,3-dihydro-1H-benzo[d]imidazol-1-yl)-N-((4H-1,2,4-triazol-3-yl)methyl)-N-(4-fluorophenyl)acetamide] — within 1.5-fold, 14.8 µM
- COc1cc(-c2cc(F)cc3c2n(C)c(=O)n3CC(=O)N(C)c2ccc(Cl)cc2)cc(F)c1OCc1nc[nH]n1 [compound 384, 2-(4-(4-((1H-1,2,4-triazol-3-yl)methoxy)-3-fluoro-5-methoxyphenyl)-6-fluoro-3-methyl-2-oxo-2,3-dihydro-1H-benzo[d]imidazol-1-yl)-N-(4-chlorophenyl)-N-methylacetamide hydrochloride] — within 1.5-fold, 14.2 µM
- COc1cc(-c2cc(C(F)(F)F)cc3c2n(C)c(=O)n3CC(=O)Nc2ccn(C)n2)cc(F)c1OCc1nnc[nH]1 [SSTN-509, 2-(4-(4-((4H-1,2,4-triazol-3-yl)methoxy)-3-fluoro-5-methoxyphenyl)-3-methyl-2-oxo-6-(trifluoromethyl)-2,3-dihydro-1H-benzo[d]imidazol-1-yl)-N-(1-methyl-1H-pyrazol-3-yl)acetamide hydrochloride] — within 1.5-fold, 16.1 µM
- Cn1c(=O)n(CC(=O)Nc2ccc(F)cc2)c2cc(C(F)(F)F)cc(-c3ccc(OCc4nnc[nH]4)c(F)c3)c21 [SSTN-597, 2-(4-(4-((4H-1,2,4-triazol-3-yl)methoxy)-3-fluorophenyl)-3-methyl-2-oxo-6-(trifluoromethyl)-2,3-dihydro-1H-benzo[d]imidazol-1-yl)-N-(4-fluorophenyl)acetamide] — 1.6-fold lower, 8.1 µM
- COc1cc(-c2cc(C(F)(F)F)cc3c2n(C)c(=O)n3CC(=O)Nc2cncc(C(F)(F)F)c2)cc(F)c1OCc1nnc[nH]1 [SSTN-614, 2-(4-(4-((4H-1,2,4-triazol-3-yl)methoxy)-3-fluoro-5-methoxyphenyl)-3-methyl-2-oxo-6-(trifluoromethyl)-2,3-dihydro-1H-benzo[d]imidazol-1-yl)-N-(5-(trifluoromethyl)pyridin-3-yl)acetamide] — 3.8-fold lower, 3.4 µM
